The record followed here is ChEMBL document CHEMBL1126348, “1,3,4-trisubstituted pyrrolidinones as scaffolds for construction of peptidomimetic cholecystokinin antagonists” (Bioorg Med Chem Lett, 1992).

For assay [1], the target named is T1, Cholecystokinin receptor type A (Rattus norvegicus, UniProt P30551).
T1 sequence (P30551 whole entry): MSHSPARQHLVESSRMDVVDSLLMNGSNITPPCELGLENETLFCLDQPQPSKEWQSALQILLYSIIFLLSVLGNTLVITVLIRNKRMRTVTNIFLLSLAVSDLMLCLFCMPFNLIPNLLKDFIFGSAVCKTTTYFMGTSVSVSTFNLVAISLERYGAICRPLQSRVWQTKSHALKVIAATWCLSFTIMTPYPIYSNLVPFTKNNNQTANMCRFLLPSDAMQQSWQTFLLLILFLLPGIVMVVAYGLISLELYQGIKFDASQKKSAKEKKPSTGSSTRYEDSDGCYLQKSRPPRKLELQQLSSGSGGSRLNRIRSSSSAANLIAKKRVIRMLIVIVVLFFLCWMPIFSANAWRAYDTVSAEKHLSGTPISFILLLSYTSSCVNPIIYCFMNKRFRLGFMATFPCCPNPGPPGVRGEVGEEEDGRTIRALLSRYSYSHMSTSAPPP
Put plainly: Displacement of [125I]CCK-OP radioligand from Cholecystokinin type A receptor in rat pancreatic acinar membrane binding assay. Format: cell membranes. (In general: Displacement assays read how much labelled ligand stays bound in the presence of the test substance.)

In assay [2] the target is T2, Cholecystokinin receptor type A (Cavia porcellus, UniProt Q63931).
T2 sequence (Q63931 whole entry): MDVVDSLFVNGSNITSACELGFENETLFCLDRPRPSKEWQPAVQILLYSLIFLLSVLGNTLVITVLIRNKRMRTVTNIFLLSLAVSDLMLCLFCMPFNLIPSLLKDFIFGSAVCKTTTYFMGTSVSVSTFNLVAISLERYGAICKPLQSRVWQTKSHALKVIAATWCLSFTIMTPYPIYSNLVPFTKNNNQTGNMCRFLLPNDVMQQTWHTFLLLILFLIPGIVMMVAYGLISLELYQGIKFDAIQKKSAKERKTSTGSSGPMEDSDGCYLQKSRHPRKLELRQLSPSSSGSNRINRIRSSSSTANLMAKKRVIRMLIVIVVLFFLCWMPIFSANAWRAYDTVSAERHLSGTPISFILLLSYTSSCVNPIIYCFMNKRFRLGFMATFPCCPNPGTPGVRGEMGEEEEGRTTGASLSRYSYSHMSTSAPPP
Put plainly: Compound was tested for competitive blocking of guinea pig ileal smooth muscle strip contraction to cholecystokinin-8 (CCK-8) receptor. In kind it is functional. The conditions noted are these: read-out: pA2 (converted).

The target of assay [3] is T3, Cholecystokinin receptor type A (Rattus norvegicus) (UniProt P30551).
T3 sequence (whole entry): T1 sequence (P30551 whole entry)
Put plainly: Effective dose of compound causing reversal of cholecystokinin-8 (CCK-8) receptor induced delayed gastric emptying in the rat when administered intraperitoneally. In kind it is functional. The conditions noted are these: Stomach.

Assay [4] has as its target T3, Cholecystokinin receptor type A (Rattus norvegicus). Put plainly: Effective dose of compound causing reversal of cholecystokinin-8 (CCK-8) receptor induced delayed gastric emptying in the rat when administered orally. In kind it is functional. The conditions noted are these: Stomach.

For orientation: IC50 means the concentration that inhibits the measured activity by half. In assay [1], `CCCCCN(CCCCC)C(=O)C(CCC(=O)O)NC(=O)c1ccc(Cl)c(Cl)c1` (centres undefined) [LORGLUMIDE] had a concentration for half-maximal inhibition (IC50) of 22 nM.
The same measure, in the same setting: the same measure for `O=C(O)[C@H]1CN(c2ccccc2)C(=O)[C@H]1NS(=O)(=O)c1ccc2ccccc2c1`: more than 1000 nM.
Same read-out and setting: the same measure for `O=C(N[C@@H]1C(=O)N(c2ccccc2F)C[C@@H]1C(=O)O)c1cnc2ccccc2c1`: 170 nM.
Usually ED50 stands for the dose that gives a 50% effect, or the effect in half of the subjects. In assay [1], `O=C(N[C@@H]1C(=O)N(c2ccccc2)C[C@@H]1C(=O)O)c1ccc2ccccc2c1` gave an IC50 of 16 nM. Besides, the Kb in assay [2] was 6.31 nM. Also, the 50% effective dose (ED50) in assay [3] was determined as 0.41 mg/kg; in assay [4], 1.8 mg/kg.
As for `CC(C)(C)OC(=O)[C@H]1CN(c2ccccc2)C(=O)[C@H]1NC(=O)c1ccc2ccccc2c1`, the IC50 in assay [1] is more than 1000 nM.
Same read-out and setting: the same measure for `O=C(N[C@H]1C(=O)N(c2ccccc2)C[C@@H]1C(=O)O)c1ccc2ccccc2c1`: 290 nM; for `O=C(N[C@@H]1C(=O)N(c2ccccc2)C[C@@H]1C(=O)O)c1cc2ccccc2[nH]1`: 18.5 nM; for `O=C(N[C@H]1C(=O)N(c2ccccc2)C[C@@H]1C(=O)O)c1cc2ccccc2[nH]1`: 360 nM.
In assay [1], `O=C(N[C@@H]1C(=O)N(Cc2ccccc2)C[C@@H]1C(=O)O)c1cc2ccccc2[nH]1` came in with an IC50 of 550 nM.
`O=C(N[C@@H]1C(=O)N(c2ccccc2F)C[C@@H]1C(=O)O)c1ccc2ccccc2c1` yielded an IC50 in assay [1] of 62 nM.
On the same count and under the same terms, the same measure for `O=C(N[C@@H]1C(=O)N(Cc2ccccc2)C[C@@H]1C(=O)O)c1ccc2ccccc2c1`: 1290 nM.
